Patent US20060204537A1, “Silicone blends and composites for drug delivery” (Genzyme Corporation, priority 2002, published 2006)

Assay: Release of Paclitaxel from silicone elastomer coatings into calf serum
Format: physicochemical
Conditions: for steady state release rate of Paclitaxel: calf serum, 37° C.
Protocol: All samples were dip-coated pieces of 316 L stainless steel, measuring 1 cm×1 cm with 26 gauge thickness. The stainless steel pieces were first cleaned by sonicating in 3% Isopanasol, deionised (DI) water, and acetone, each for 6 minutes, then dipped into the silicone composite solutions of the invention. Silicone elastomer solutions were made with DAP® 100% silicone rubber adhesive (from DAP, Inc., Maryland) co-dissolved with either Paclitaxel or Tranilast and 20% (w/w) of polyethylene glycol, MW 3400 (PEG) in methylene chloride. Upon setting, the silicone elastomer solutions formed a film on the steel pieces having a certain thickness. Paclitaxel was loaded at 2% of silicone weight. Tranilast was loaded at 5% of silicone weight. […] All samples were placed in glass culture tubes with 2 mL of either PBS, pH 7.4 or calf serum. The culture tubes were then placed in a shaking water bath at 37° C. and 120 rpm. At each time interval, all of the release media was removed and replaced by fresh solution. Paclitaxel samples were assayed using a competitive inhibition enzyme immunoassay (CIEIA) kit from Hawaii Biotech, Aiea, Hi. Tranilast samples were assayed using UV spectrophotometry at a wavelength of 340 nm.

CC(=O)O[C@H]1C(=O)[C@@]2(C)[C@H]([C@H](OC(=O)c3ccccc3)[C@]3(O)C[C@H](OC(=O)[C@H](O)[C@@H](NC(=O)c4ccccc4)c4ccccc4)C(C)=C1C3(C)C)[C@]1(OC(C)=O)CO[C@@H]1C[C@@H]2O [Paclitaxel]
duration of almost zero-order release after the initial burst (both films, with and without PEG): 60 days | steady state release rate of Paclitaxel (films with 20% weight PEG MW 3400): 0.38 ± 0.03 µg/day | initial burst of Paclitaxel (films without PEG compared with films with 20% PEG): higher initial burst | steady state release rate of Paclitaxel (films without PEG): 0.21 ± 0.03 µg/day | duration of continued but decreased release (silicone elastomer coatings): ≤ 140 days
